What was measured:
Creb1, Bdnf, Rbbp4 = experiment: Plasticity gene expression by quantitative real time PCR in mouse primary neurons; format: cell-based
Protocol: Primary immature neuronal cultures were prepared from cerebral cortex of E14 embryos (day 14 of gestation) of CD1 mice under sterile conditions. Dissected cortices were incubated at 37° C. for 20 min in EBSS solution containing papain, L-cystine and EDTA, which was activated at 37 °C for 30 min and then was filtered through […] (Millipore, catalog number—SCGP00525). Cortices were then mechanically dissociated by trituration with glass pipettes. The rDNase was added in dissociated cells followed by incubation of these dissociated cells at 37 °C for 3 min. Thereafter, these cells were centrifuged at 2800 rpm for 5 min. Then supernatant was discarded, and cell were resuspended gently in a 5 ml mixture of EBSS and 10/10 solution (4:1 ratio). Then 5 ml of 10/10 solution was added gently on top and these resuspended cells were centrifuged at 2800 rpm for 10 min. Supernatant was again discarded and cells were resuspended in 10 ml MEM, Glutamax supplement (Thermo Fisher Scientific, Catalog number—41090036) containing 10% heat inactivated fetal bovine serum (Thermo Fisher Scientific, Catalog number—16140071), 5% heat inactivated horse serum (Thermo Fisher Scientific, Catalog number—26050088), and 1% penicillin/streptomycin (Thermo Fisher Scientific, Catalog number—15140122). Thereafter, resuspended cells were filtered through 70-micron cell strainer (Thomas Scientific, catalog number—4620F02) followed by their counting through Hemocytometer. Cells were, finally, plated at the density of 1 million cells/ml onto poly-D-Lysine (PDL; Sigma Aldrich, catalog number—P6407-10X5MG) coated pates and placed in CO2-buffered incubators at 37° C.
Total RNA was extracted from primary cortical neurons using NucleoSpin RNA II Kit (Clontech, Catalog number—740955-250). Thereafter, using the Taqman RNA-to-Ct, one step kit (Thermo Fisher Scientific, catalog number—4392938) and following the manufacturer's instructions, […] from each sample was mixed with the Taqman® Gene Expression Master Mix and Taqman® Gene Expression Assays for Creb1 (Catalog number—Mm00501607_m1), Bdnf (Catalog number—Mm04230607_s1), Rbbp4 (Catalog number—Mm00771401_g1), Bip (Catalog number—Mm00517691_m1), Trib3 (Catalog number—Mm00454879_m1), and Chac1 (Catalog number—Mm00509926_m1) with FAM labelled probe and Actin with VIC labelled probe all from Thermo Fisher Scientific on an Applied Biosystems 7500 Fast Real Time PCR System. For assessing gene expression of various specific Bdnf exons in mouse primary neurons, two step qPCR was used. Total RNA from primary cortical neurons was extracted using NucleoSpin RNA II Kit (Clontech, Catalog number—740955-250) and a total of 1.5 μg RNA was used to synthesize cDNA with the SuperScript® III First-Strand Synthesis System (Thermo Fisher Scientific, Catalog number—18080051). Quantitative RT-PCR was then performed using SYBR green (Thermo Fisher Scientific, Catalog number—4309155) on an Applied Biosystems 7500 Fast Real Time PCR System. Quantitative levels for all genes were normalized to the housekeeping gene GAPDH and expressed relative to the relevant control samples as fold change. The sequences of primers used in this part of the study were as follows: Bdnf I forward: […] (SEQ ID NO:9) and Bdnf I reverse: […] (SEQ ID NO:10); Bdnf II forward: […] (SEQ ID NO:11) and Bdnf II reverse: […] (SEQ ID NO:12); Bdnf IV forward #2: […] (SEQ ID NO:13) and Bdnf IV reverse #2: […] (SEQ ID NO:14); Bdnf VI forward: […] (SEQ ID NO:15) and Bdnf VI reverse: […] (SEQ ID NO:16); Bdnf VII forward: […] (SEQ ID NO:17) and Bdnf VII reverse: […] (SEQ ID NO:18) Bdnf IX forward: […] (SEQ ID NO:19) and Bdnf IX reverse: […] (SEQ ID NO:20); Gapdh forward #2: […] (SEQ ID NO:21) and Gapdh reverse #2: […] (SEQ ID NO: 22).

[1] = indicated by FDG PET studies; cited from earlier work
hippocampal slices = experiment: Long term potentiation (fEPSP) in submerged hippocampal slices; design: species or system mouse; conditions: 10 mM for 6 h in ACSF
Source text: Brains were quickly removed from mice sacrificed by cervical dislocation and placed in cold artificial cerebrospinal fluid (ACSF) (bubbled with 95% O2/5% CO2) containing (in mM): 124 NaCl, 4 KCl, 1 Na2HPO4, 25 NaHCO3, 2 CaCl2, 2 MgCl2, and 10 glucose. The pH and osmolarity of the solution were 7.4 and 310 mOsm/L, respectively. The hippocampus was isolated and placed on a mechanical tissue chopper to produce transverse hippocampal slices of 400 μm thickness. […] Hippocampal slices were allowed to recover for at least 90 min prior to beginning the experiment. For recordings, glass electrodes were filled with ACSF and positioned in the CA1 stratum radiatum to record fEPSPs evoked by local stimulation (0.1 ms) of Schaffer collateral fibers using a bipolar concentric electrode placed laterally to the recording electrode (˜150 μm). For LTP recordings, the voltage intensity of the stimulation test pulse (square pulse, 100 us duration) for each slice was determined to be the voltage intensity that had generated 30-40% of the maximum slope obtained using input-output relationships. Facilitation was calculated as the ratio of the slopes of the second and first fEPSPs, and plotted as a function of the inter-pulse duration. For LTP, a test pulse was applied every minute. […] Residual potentiation was calculated as the average of the last 15 min of 2 h of recordings.

## OC[C@H]1OC(O)C[C@@H](O)[C@@H]1O (stereo partly drawn) [2-DG, (4R,5S,6R)-6-(hydroxymethyl)oxane-2,4,5-triol]
Creb1, Bdnf, Rbbp4; 10 mM, 6 h, mouse primary neurons
  endogenous mRNA levels of six Bdnf transcript variants: all transcript variants were upregulated
Creb1, Bdnf, Rbbp4; adenoviral dominant negative AMPK, increasing concentrations of 2-DG
  Creb1 and Bdnf gene expression with AMPK phosphorylation knocked down: did not block 2-DG led increase in Creb1 and Bdnf gene expression
Creb1, Bdnf, Rbbp4; adenoviral dominant negative ATF4, 2-DG 6 h treatment
  Bdnf gene expression with dominant negative ATF4: ATF4 knockdown blocked 2-DG led increase in Bdnf gene expression
Creb1, Bdnf, Rbbp4; increasing concentration, co-treated with 25 mM KCl, 6 h
  plasticity gene program in depolarized primary neurons: dose dependent increase in plasticity gene program
Creb1, Bdnf, Rbbp4; increasing concentrations 1-15 mM, primary cortical neurons
  changes in Bdnf gene expression: does dependent
Creb1, Bdnf, Rbbp4; increasing concentrations, 6 h, mouse primary neurons
  expression of plasticity genes Creb1, Bdnf and Rbbp4 (mRNA): dose-dependent increase
[1]
  crossing of the blood brain barrier: can easily cross the blood brain barrier
Hippocampal slices
  LTP in submerged hippocampal slices: significant increase

From patent US20240197760A1, “ACTIVATORS OF INTEGRATED STRESS RESPONSE PATHWAY FOR PROTECTION AGAINST FERROPTOSIS” (Burke Neurological Institute, priority 2021, published 2024)
